Source: ChEMBL document CHEMBL1799935, “Identification of new inhibitors of protein kinase R guided by statistical modeling” (Bioorg Med Chem Lett, 2011)
Calls of active or inactive are those of the source. No cut-off for these calls is given here.

molecular target: T1, Interferon-induced, double-stranded RNA-activated protein kinase (Homo sapiens, UniProt P19525); experiment: Inhibition of human recombinant PKR autophosphorylation using poly[I:C] after 10 mins by luminescent assay; details: not given
T1 sequence (P19525 whole entry): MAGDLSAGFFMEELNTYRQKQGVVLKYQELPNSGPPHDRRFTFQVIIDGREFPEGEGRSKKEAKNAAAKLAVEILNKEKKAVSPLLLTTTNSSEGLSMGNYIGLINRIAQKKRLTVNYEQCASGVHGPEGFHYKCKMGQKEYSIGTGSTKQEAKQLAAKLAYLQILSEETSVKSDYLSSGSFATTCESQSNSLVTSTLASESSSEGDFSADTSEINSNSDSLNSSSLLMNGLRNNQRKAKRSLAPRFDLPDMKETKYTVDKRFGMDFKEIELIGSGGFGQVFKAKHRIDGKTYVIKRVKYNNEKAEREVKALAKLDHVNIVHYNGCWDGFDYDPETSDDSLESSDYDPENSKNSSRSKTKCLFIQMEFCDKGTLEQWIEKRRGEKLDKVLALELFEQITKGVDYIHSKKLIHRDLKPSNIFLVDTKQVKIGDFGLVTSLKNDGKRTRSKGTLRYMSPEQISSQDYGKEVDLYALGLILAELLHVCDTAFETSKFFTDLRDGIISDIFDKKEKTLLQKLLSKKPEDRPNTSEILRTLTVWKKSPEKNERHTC

Structure (SMILES) | IC50 [µM]
Cc1[nH]c2ccccc2c1-c1ccnc(NCCc2c[nH]c3ccccc23)n1 | 9
COC(=O)c1ccc2c(-c3ccnc(NCCO)n3)c[nH]c2c1 | 9
CCn1cnc2c(Nc3cccc(Cl)c3)nc(N[C@@H]3CCCC[C@@H]3N)nc21 | 3
N#Cc1cnc2cnc(NCc3cccnc3)cc2c1Nc1ccc(F)c(Cl)c1 | 0.25
COC(=O)c1ccc2c(-c3ccnc(NCCN4CCOCC4)n3)c[nH]c2c1 | 18
Cc1[nH]c2ccc(Cl)cc2c1-c1ccnc(NCc2cccnc2)n1 | 48
COCCCNc1nccc(-c2c(C)[nH]c3ccc(Cl)cc23)n1 | 3
c1ccc(-c2[nH]c3ccccc3c2-c2ccnc(NCCN3CCOCC3)n2)cc1 | 12
O=C1Nc2ccccc2/C1=C1/Nc2ccccc2/C1=N\OCCC(O)CO (configuration not stated) | < 0.1
CSc1cccc(N/C=C2\C(=O)Nc3ccccc32)c1 | 2.5
Cc1[nH]c2ccccc2c1-c1ccnc(Nc2ccc(Cl)cc2)n1 | 0.6
COc1ccc2c(c1)/C(=N/NC(=O)c1cc(Br)ccc1O)C(=O)N2 | 9.4
c1cc(-c2cnn3cc(-c4ccc(OCCN5CCCCC5)cc4)cnc23)ccn1 [DORSOMORPHIN] | 16
O=C1NC(=O)/C(=C\c2c[nH]c3ccccc23)N1 | 11
C=C1NNC(=O)/C1=N\Nc1ccc(S(N)(=O)=O)cc1 | 11
Cc1[nH]c2ccccc2c1-c1ccnc(Nc2ccc(F)c(F)c2)n1 | 1.5
O=C1NC(=O)/C(=C/c2c[nH]c3ccccc23)N1 | 10.5
CN1C(=O)NC(=O)/C(=C\c2c[nH]c3ccc(O)cc23)C1=O | 3
O=Nc1c(-c2c(O)[nH]c3ccccc23)[nH]c2ccccc12 [INDIRUBIN-3-MONOXIME] | < 0.1
Nc1nc(Nc2ccc(S(N)(=O)=O)cc2)nn1C(=O)Nc1c(F)cccc1F | 8
Oc1c2ccccc2c2c3c(cccc13)N=N2 [SP-600125] | 8
O=C(Nc1cccc(Nc2nccc(Nc3cccc(C(F)(F)F)c3)n2)c1)C1CC1 [ANILINOPYRIMIDINE1] | 20
Cc1[nH]c2ccccc2c1-c1ccnc(Nc2ccccc2Cl)n1 | 19
COC(=O)[C@]1(O)C[C@@H]2O[C@@]1(C)n1c3ccccc3c3c4c(c5c6ccccc6n2c5c31)C(=O)NC4 (single isomer, unassigned) | < 0.1
Cc1[nH]c2ccc(Cl)cc2c1-c1ccnc(N2CCN(c3ccc(F)cc3)CC2)n1 | > 100
Cc1[nH]c2ccc(Cl)cc2c1-c1ccnc(N2CCCC2)n1 | > 100
COc1ccc2[nH]c(C)c(-c3ccnc(NC4CCCC4)n3)c2c1 | 1.5

Structure (SMILES) | IC50 [µM]
COc1ccc2c(c1)[nH]c1c(N3CCN(C(N)=O)CC3)ncnc12 | 13
Cc1[nH]c2ccccc2c1-c1ccnc(N2CCN(c3ccccn3)CC2)n1 | > 100
OCCNc1nccc(-c2c[nH]c3ccccc23)n1 | 11
O=C(O)/C=C/c1cc(Br)c(Br)c(Br)c1Br | 7
Cc1[nH]c2ccccc2c1-c1ccnc(Nc2ccc(F)cc2)n1 | 0.15
COc1ccc(Nc2nccc(-c3c(C)[nH]c4ccc(OC)cc34)n2)cc1 | 55
c1ccc(-c2[nH]c3ccccc3c2-c2ccnc(NCc3cccnc3)n2)cc1 | > 100
Cc1[nH]c2ccccc2c1-c1ccnc(N2CCCC2)n1 | > 100
Nc1nc(Nc2ccc(S(N)(=O)=O)cc2)nn1C(=S)Nc1c(F)cccc1F | 1.6
O=c1nncc(Nc2ccc3cn[nH]c3c2)[nH]1 | 13
O=C1NCc2c1c1c3ccccc3n3c1c1c2c2ccccc2n1C1CCC3O1 (configuration not stated) | 0.75
Cc1[nH]c2ccccc2c1-c1ccnc(N2CCOCC2)n1 | 90
Cc1[nH]c2ccc(Cl)cc2c1-c1ccnc(NC2CCCC2)n1 | 8
c1ccc2c(CCNc3nccc(-c4c[nH]nc4-c4ccncc4)n3)c[nH]c2c1 | 51
Fc1ccc(Nc2nccc(-c3c(-c4ccccc4)[nH]c4ccccc34)n2)cc1 | 7
CN1CCN(c2ccc(Nc3ncnc4ccc([N+](=O)[O-])cc34)cc2)CC1 | 15
Cc1[nH]c2ccc(Cl)cc2c1-c1ccnc(NCCN2CCOCC2)n1 | 12
O=C1Nc2cc(Br)ccc2/C1=C1/Nc2ccccc2/C1=N\O [6BIO] | 0.6
Nc1ncnc2[nH]nc(Nc3ccc(F)cc3)c12 | 5
N#CCCc1ccc2c(c1)C1Nc3ccc([N+](=O)[O-])cc3C1CC(=O)N2 (configuration not stated) | 3.5
O=C(O)c1ccc2c3c1cccc3c(=O)n1c3ccccc3nc21 | < 0.1
Cc1[nH]c2ccccc2c1-c1ccnc(N2CCN(c3ccc(F)cc3)CC2)n1 | > 100
CCN(CC)C(=O)c1ccc(Nc2nc(OCC3CCCCC3)c3nc[nH]c3n2)cc1 | 2
Cc1[nH]c2ccccc2c1-c1ccnc(NC(CO)C(C)C)n1 (configuration not stated) | 50
FC(F)(F)c1nnc2ccc(NCCc3c[nH]c4ccccc34)nn12 | 19
Cc1cc(Nc2nc(-c3ccccc3)nc3ccccc23)[nH]n1 | 15
CC(C)n1cnc2c(Nc3cccc(Cl)c3)nc(NCCO)nc21 | 16

Structure (SMILES) | IC50 [µM]
Cc1[nH]c2ccc(Cl)cc2c1-c1ccnc(Nc2cccc(Cl)c2)n1 | 2.5
NC(=O)Nc1sc(-c2ccc(F)cc2)cc1C(N)=O | 0.25
O=C1NC(=O)c2c1c1c3ccccc3[nH]c1n1cncc21 [ISOGRANULATIMIDE] | < 0.1
Cc1[nH]c2ccccc2c1-c1ccnc(NCc2cccnc2)n1 | 45
Cc1[nH]c2ccccc2c1-c1ccnc(NCCO)n1 | 11
Nc1cccc(-c2cc3c(Oc4cccc(O)c4)ncnc3[nH]2)c1 | 4
COCCCNc1nccc(-c2c(C)[nH]c3ccccc23)n1 | 1.5
Nc1nc(Nc2ccc(OC(F)(F)F)cc2)c2nc[nH]c2n1 | 20
c1ccc(-c2[nH]c3ccccc3c2-c2ccnc(NC3CCCC3)n2)cc1 | > 100
O=C1NC(=O)c2c1c1c3ccccc3[nH]c1c1[nH]c3cc(Br)ccc3c21 | 6
C=C1NNC(=O)N=C1Nc1ccc2cn[nH]c2c1 | 16
Fc1ccc(N2CCN(c3nccc(-c4c[nH]c5ccccc45)n3)CC2)cc1 | > 100
Cc1[nH]c2ccccc2c1-c1ccnc(Nc2cccnc2)n1 | 0.1
Cn1nc2c3c(cccc31)C(=O)c1ccccc1-2 | 12
Cn1ncc2c(N3CCOCC3)nc(NCCc3c[nH]c4ccccc34)nc21 [TDR79432] | 11
COc1ccc2c(c1)/C(=C/c1cnc[nH]1)C(=O)N2 [SU-9516] | 5
Cc1[nH]c2ccccc2c1-c1ccnc(Nc2cccc(Cl)c2)n1 | 0.3
O=C1Cc2ccc(Oc3ccc4c(c3)NC(=O)C4)cc2N1 | 14
COc1ccc2[nH]c(C)c(-c3ccnc(Nc4ccc(Cl)cc4)n3)c2c1 | 50
N#C/C(=C1/Nc2ccccc2S1)c1ccnc(NCCc2cccnc2)n1 | < 0.1
COc1ccc2[nH]cc(-c3ccnc(NCCN4CCOCC4)n3)c2c1 | > 100
COC(=O)c1ccc2c(-c3ccnc(SCCN(C)C)n3)c[nH]c2c1 | > 100
NCc1ccc(C(=O)N/N=C2\C(=O)Nc3ccc(Br)cc32)cc1 | 12
Nc1n[nH]c2nc3ccccc3nc12 [QUINOXALINE1] | 6
Cc1[nH]c2ccc(Cl)cc2c1-c1ccnc(Nc2ccc(N3CCN(C)CC3)cc2)n1 | 0.1
O=C1NC(=O)/C(=C/c2c[nH]c3ccc(Br)cc23)N1 | 4

test system: Vero; experiment: Cytotoxicity against african green monkey Vero cells assessed as cell survival at up to 100 uM after 48 hrs by MTS assay; type: cell-based; details: chlorocebus sabaeus

Structure (SMILES) | Activity
Cc1[nH]c2ccccc2c1-c1ccnc(NCCc2c[nH]c3ccccc23)n1 | Non-toxic

test system: not listed separately; experiment: Cytotoxicity against mouse bone marrow macrophages assessed as cell survival at up to 100 uM after 48 hrs by MTS assay; type: cell-based; details: macrophage

Structure (SMILES) | Activity
Cc1[nH]c2ccccc2c1-c1ccnc(NCCc2c[nH]c3ccccc23)n1 | Non-toxic

test system: not listed separately; experiment: Cytotoxicity against mouse bone marrow macrophages assessed as cell survival at 30 uM after 24 hrs by photomicroscopy analysis; type: cell-based; details: macrophage

Structure (SMILES) | Activity
Cc1[nH]c2ccccc2c1-c1ccnc(NCCc2c[nH]c3ccccc23)n1 | Non-toxic

molecular target: T1, Interferon-induced, double-stranded RNA-activated protein kinase; experiment: Competitive inhibition of human recombinant PKR; details: not given

Structure (SMILES) | Ki [µM]
Cc1[nH]c2ccccc2c1-c1ccnc(NCCc2c[nH]c3ccccc23)n1 | 3.4

molecular target: T2, Interferon-induced, double-stranded RNA-activated protein kinase (Mus musculus) (UniProt Q03963); experiment: Inhibition of poly[I:C]-induced PKR autophosphorylation mouse bone marrow macrophages treated immediately before addition of poly[I:C] by Western blotting; details: not given
T2 sequence (whole entry): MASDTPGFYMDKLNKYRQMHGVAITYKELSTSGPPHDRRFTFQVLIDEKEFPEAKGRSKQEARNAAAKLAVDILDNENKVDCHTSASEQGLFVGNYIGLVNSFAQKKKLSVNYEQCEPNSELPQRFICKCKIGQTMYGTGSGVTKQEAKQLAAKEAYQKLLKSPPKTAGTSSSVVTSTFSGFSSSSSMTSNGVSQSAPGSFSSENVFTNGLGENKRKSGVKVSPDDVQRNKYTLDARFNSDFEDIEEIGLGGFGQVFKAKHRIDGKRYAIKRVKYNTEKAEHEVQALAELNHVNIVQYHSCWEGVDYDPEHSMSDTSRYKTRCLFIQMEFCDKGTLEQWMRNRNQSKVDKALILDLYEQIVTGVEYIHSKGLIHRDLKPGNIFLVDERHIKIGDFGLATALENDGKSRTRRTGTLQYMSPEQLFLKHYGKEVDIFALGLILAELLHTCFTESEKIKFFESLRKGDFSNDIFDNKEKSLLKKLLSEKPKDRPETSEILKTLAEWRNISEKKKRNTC

Structure (SMILES) | inhibition
Cc1[nH]c2ccccc2c1-c1ccnc(NCCc2c[nH]c3ccccc23)n1 | Dose-dependent effect

molecular target: T2, Interferon-induced, double-stranded RNA-activated protein kinase (Mus musculus); experiment: Inhibition of poly[I:C]-induced PKR autophosphorylation mouse bone marrow macrophages at 40 uM treated immediately before addition of poly[I:C] by Western blotting; details: not given

Structure (SMILES) | inhibition
c1ccc(-c2[nH]c3ccccc3c2-c2ccnc(NCc3cccnc3)n2)cc1 | inactive
c1ccc(-c2[nH]c3ccccc3c2-c2ccnc(NC3CCCC3)n2)cc1 | inactive
